Data from patent publication US9000027B2, “Chk1 suppresses a caspase-2 apoptotic response to DNA damage that bypasses p53, bcl-2 and caspase-3” (Dana-Farber Cancer Institute, Inc., priority 2008, dated 2015).

What was measured:
MK-2 [1] = target: T1, MK-2 (Homo sapiens, UniProt P49137); experiment: Western blot of MK-2 activity (Hsp-27 Ser82 phosphorylation) in irradiated HeLa cells; assay type: cell-based; set-up: endogenous in cells; host or cells: HeLa; details: irradiated HeLa cells, increasing concentrations of SB203580
Procedure: Protein extract (5-60 μg) was added to 4× gel loading buffer and 10× denaturing solution (Invitrogen) in appropriate proportions, and samples were incubated at 70° C. for 10 min. Samples were run at 200V for 1 hr on a 4-12% Bis-tris gradient gel (Invitrogen). After electrophoresis, samples were transferred for 1.5 hr (350 mA) to a Nitrocellulose membrane (Millipore) using a submerged transfer apparatus (Bio-Rad). Membranes were then blocked with 5% milk in Tris-buffered saline with 0.1% tween (TBST) and probed overnight at 4° C. with the following antibodies: anti-zebrafish Chk1 (diluted 1:200), anti-zebrafish Chk2 (1:200), anti-P-Cdc2 (1:1000), anti-actin (1:2000), anti-human ATR (1:500) and Stressgen anti-human-caspase-3 (1:500) for zebrafish immunoblots; and anti-caspase-2 (1:200), Upstate anti-caspase-3 (1:500), anti-P-ATM (1:500), anti-ATM (1:500), Santa Cruz anti-human Chk1 (1:1000), Santa Cruz anti-human Chk2 (1:1000), anti-P-Chk1 (1:500), anti-P-Chk2 (1:500), anti-P-H2A.X (1:2000), anti-P-cdc25C (1:1000), anti-P-HSP27 (1:1000), anti-HSP27 (1:1000), anti-P-Cdc2 (1:1000), anti-p53 (1:1000) and anti-GAPDH (1:5000) for immunoblots of human tumor cell lysates. Detailed references for all primary antibodies can be found in the ‘Antibodies’ section elsewhere herein.
Target sequence in this assay (P49137 whole entry): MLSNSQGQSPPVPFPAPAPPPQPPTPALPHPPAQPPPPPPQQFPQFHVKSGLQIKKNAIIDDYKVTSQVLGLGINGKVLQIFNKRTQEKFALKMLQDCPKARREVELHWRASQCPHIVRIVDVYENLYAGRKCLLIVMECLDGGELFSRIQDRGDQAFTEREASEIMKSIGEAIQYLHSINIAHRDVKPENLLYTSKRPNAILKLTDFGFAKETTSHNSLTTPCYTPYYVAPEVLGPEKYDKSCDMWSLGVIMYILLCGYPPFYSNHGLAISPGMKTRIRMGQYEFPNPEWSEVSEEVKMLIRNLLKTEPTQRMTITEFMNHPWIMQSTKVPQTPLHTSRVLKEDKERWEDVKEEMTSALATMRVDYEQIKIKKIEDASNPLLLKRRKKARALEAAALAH

Chk1 = target: T2, Chk1 (Homo sapiens, UniProt O14757); details: concentration initially thought to specifically inhibit Chk1; cited from earlier work
T2 sequence (O14757 1-476): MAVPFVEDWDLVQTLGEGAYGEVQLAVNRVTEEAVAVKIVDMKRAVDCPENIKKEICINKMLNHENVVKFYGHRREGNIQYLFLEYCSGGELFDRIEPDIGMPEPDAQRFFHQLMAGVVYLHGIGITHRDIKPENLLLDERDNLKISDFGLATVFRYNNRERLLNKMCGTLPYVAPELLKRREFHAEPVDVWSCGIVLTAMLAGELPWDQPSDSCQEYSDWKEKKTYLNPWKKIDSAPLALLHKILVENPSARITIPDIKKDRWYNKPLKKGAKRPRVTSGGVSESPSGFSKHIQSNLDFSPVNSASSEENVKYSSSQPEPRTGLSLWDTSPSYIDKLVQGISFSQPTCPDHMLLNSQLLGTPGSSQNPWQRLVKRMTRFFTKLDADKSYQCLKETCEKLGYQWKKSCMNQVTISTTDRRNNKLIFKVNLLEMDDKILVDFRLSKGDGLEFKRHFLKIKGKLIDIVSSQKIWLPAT

MK-2 [2] = target: T1, MK-2; details: concentration initially thought to specifically inhibit Chk1; cited from earlier work
Target sequence in this assay (P49137 whole entry, species assumed): as the sequence (P49137 whole entry) above

[3] = test system: p53^e7/e7;chk1^MO embryos; experiment: Epistasis analyses in irradiated p53^e7/e7;chk1^MO embryos (live AO assay); assay type: in vivo; details: 12.5 Gy
Procedure: To identify such molecules, we performed in vivo epistasis analyses in zebrafish by knocking down or forcing the expression of candidate pathway contributors in p53^e7/e7;chk1^MO embryos.
Morpholino oligonucleotides (MOs) synthesized by Gene Tools™ LLC, were resuspended in sterile water at a concentration of 1 mM and delivered into zebrafish embryos at the one-cell stage by microinjection. The injection apparatus consisted of a heat-pulled, filamentous RNAse free capillary tube positioned by a micromanipulator (Narishige™ M-125), through which the MO was pressure-injected using a nitrogen air supply controlled by a microinjector (Harvard Apparatus™ PLI-100). MOs were delivered into the yolk of embryos at the one cell stage, just below the cytoplasm. For each previously unpublished MO, the working concentration was determined as the highest dose compatible with normal zebrafish development in the p53^e7/e7 background (maximal subtoxic concentration). […] 100 ng of bcl-xl mRNA in vitro transcribed from full-length zebrafish bcl-xl cDNA cloned into pCS2 were injected as described above. All embryos were grown at 28.5° C. in egg water (5 mM NaCl, 0.17 mM KCl, 0.4 mM CaCl2 and 0.16 mM MgSO4). Knockdown efficiencies for the chk1, chk2, atm, atr, p63, casp8 and casp9 MOs at their maximal subtoxic concentrations are shown in FIG. 10. The sequences of the PCR primers used for RT-PCR-based monitoring of MO efficiencies are available upon request.
Live zebrafish embryos were dechorionated in pronase (2.0 mg/mL in egg water) for 3 to 5 min and rinsed five times in egg water at 18 hpf. […] At 24 hpf, embryos were incubated in […] Acridine Orange (AO; Sigma A-6014) in egg water for 30 min at 28.5° C., followed by 3 quick rinses and three 10-min washes in egg water. 5-10 AO-treated embryos were anesthetized in Tricaine ([…]; 3-amino benzoic acid ethylester from Sigma, A-5040) and mounted laterally on a glass slide in warm 0.5% agarose in egg water by streaking a thin layer of the warm agarose across the surface of the slide, and gently pulling the embryos across the agar with a transfer pipette. Lateral images of each zebrafish were acquired on a Zeiss Axioplan2 fluorescence microscope (5× lens), using OpenLab software and a Hammamatsu C4742-95 digital camera. All images were then converted to 8-bit grayscale in NIH ImageJ using the Image>Type>8-bit command. Next, we cropped the images using the Polyonal Selection tool and the Image>Crop functions to include only the trunk of the animal from the head until the beginning of the yolk tube (MO screen; FIG. 1B) or along the entire spinal cord (epistasis analyses; FIGS. 6A & 6D). The area outside of the selected region of interest was cleared using the Edit>Clear Outside command to create a distinct boundary around the area of interest (this is important as it allows the area of interest to be precisely selected after applying the threshold). Next, we split the acquired images into features of interest and background using the Image>Adjust>Threshold function in NIH ImageJ. We then set the maximum threshold of each image to 255 (the lower slide bar in the Threshold window), and adjusted the minimum threshold to the optimized threshold (see below). The threshold was applied using the Black & White display option, with the following Lut options applied; Thresholded pixels to foreground color; Remaining pixels to background color and Black foreground, white background. […] Next, we re-selected the region of interest on the thresholded image, following the bounded image carefully, and analyzed the pixels of the image using the Analyze>Analyze Particles function. The Minimum Size was set to 1px, the Maximum Size was set to the maximum value of 999999 and the Masks option was selected under the Show pull-down menu. The following extended options were also selected: Display Results; Clear Results; Summarize, Size Distribution and Record Starts. […]

zebrafish ATR = experiment: MO knockdown efficiency: western blot of ATR levels; assay type: in vivo; details: atr MO 0.25 mM, 25.5 hpf lysates
Source text: (§1) (A) Western blot of 25.5 hpf zebrafish protein lysates from non-injected and atr MO-injected embryos using an anti-human ATR antibody recognizing an internal peptide that is highly conserved in zebrafish Atr. Detection of a high molecular weight zebrafish band showing the same migration pattern as human ATR (lane 1) strongly supports crossreactivity of the antibody with zebrafish ATR (the predicted molecular weight of zebrafish ATR, 300 kDa, matches that of human ATR). […] The MO concentration used in the MO screen (FIG. 1) and epistasis analyses (FIG. 5), 0.25 mM, leads to a >50% reduction in ATR levels compared to control (compare lanes 5 with 2 and 3). (B-E) Gel migration profiles of RT-PCR products from non-injected and MO-injected embryos using primers in exons flanking the targeted exon (Table 1). All bands were excised and sequenced. […] All RT-PCRs are semi-quantitative with β-actin amplicon serving as loading control. […] Either aberrant splice product results in the occurrence of an inappropriate early stop codon (as a result of in-frame reading of the intron or of a frameshift caused by exon skipping), which is predicted to result in an early truncation of the ATM protein before the PIKK kinase domain. […] As exemplified in lane 4, this same MO concentration could lead to stronger knockdowns, but in this case the embryos could not be scored in the assay. […]

casp9 = experiment: MO knockdown efficiency: RT-PCR of casp9 transcripts; assay type: in vivo, zebrafish; details: maximal subtoxic MO concentration
Source text: as §1

p53^e7/e7 mutant embryos = experiment: Morpholino screen for suppressors of p53^e7/e7 radioresistance (live AO assay); assay type: in vivo, zebrafish; details: p53^e7/e7, 12.5 Gy
Procedure: We used morpholino antisense oligonucleotides (MOs) to knock down the expression levels of 8 zebrafish S- and G2-checkpoint kinases in p53^e7/e7 mutant embryos and assessed the ability of each knockdown to restore cell death (AO reactivity) at 7.5 hours post-IR (hpIR). We also tested several double-knockdown combinations, as well as knockdowns of non-kinase checkpoint regulators (p21^waf1/cip1 and smc1). For each knockdown, we scored a minimum of 50 embryos and quantified AO staining in at least 5 embryos. To avoid the isolation of false-positives, we adjusted the concentrations of each MO to the maximal dose compatible with normal embryonic development in the p53^e7/e7 background.
Morpholino oligonucleotides (MOs) synthesized by Gene Tools™ LLC, were resuspended in sterile water at a concentration of 1 mM and delivered into zebrafish embryos at the one-cell stage by microinjection. […] For each previously unpublished MO, the working concentration was determined as the highest dose compatible with normal zebrafish development in the p53^e7/e7 background (maximal subtoxic concentration). […]
Live zebrafish embryos were dechorionated in pronase (2.0 mg/mL in egg water) for 3 to 5 min and rinsed five times in egg water at 18 hpf. […] Lateral images of each zebrafish were acquired on a Zeiss Axioplan2 fluorescence microscope (5× lens), using OpenLab software and a Hammamatsu C4742-95 digital camera. […]

With `C[S+]([O-])c1ccc(-c2nc(-c3ccncc3)c(-c3ccc(F)cc3)[nH]2)cc1` (centres unmarked) [SB203580] the “phosphorylated Hsp-27 at Ser82 versus native Hsp-27” value (MK-2 [1]) was “reduction in the abundance of phosphorylated Hsp-27 at Ser82”.
In the case of `CN[C@@H]1C[C@H]2O[C@@](C)([C@@H]1OC)n1c3ccccc3c3c4c(c5c6ccccc6n2c5c31)C(=O)N[C@H]4O` [UCN-01, 7-hydroxystaurosporine], the Chk1 inhibition (Chk1) is given as “inhibits both Chk1 and MK-2” and the MK-2 inhibition (MK-2 [2]) is given as “inhibits both Chk1 and MK-2”.
For “atr MO: morpholino against zebrafish atr atg/5'UTR (SEQ ID NO: 15) (TGACATTTCTAGTCCTTGCTCCATC; antisense; all phosphorodiamidate morpholino (PMO))”, the “reduction of the mean p53^e7/e7;chk1^MO AO response” value [3] was ~90% and the “reduction in ATR levels compared to control” value (zebrafish ATR) was > 50%.
In the case of “casp9 MO: morpholino against zebrafish casp9 splice donor site (SEQ ID NO: 26) (GATGGAAAAACACACTTACGGACTG; antisense; all phosphorodiamidate morpholino (PMO))”, the “effect on IR-induced cell death (AO labeling) of p53^e7/e7;chk1^MO embryos” value [3] is reported as “complete absence of effects” and the casp9 knockdown (casp9) is reported as ~50%.
For “chk1 mismatch MO: 5 base-pair mismatch version of chk1 MO, agCcaGagcGattatCcaatGttcg (SEQ ID NO: 12) (AGCCAGAGCGATTATCCAATGTTCG; all phosphorodiamidate morpholino (PMO))”, the “radiosensitization of p53 mutants” value (p53^e7/e7 mutant embryos) was “failed to radiosensitize p53 mutants”.
